Assays:
[1] = target: Serine/threonine-protein kinase B-raf (Homo sapiens, UniProt P15056)
Description: Inhibition of human recombinant full-length GST-tagged B-Raf by radiometric kinase assay

[2] = target: Mitogen-activated protein kinase 14 (Homo sapiens, UniProt Q16539); assay: Inhibition of human recombinant full-length N-terminal GST-tagged p38alpha expressed in Escherichia coli by radiometric kinase assay
[3] = target: Tyrosine-protein kinase ABL1 (Mus musculus, UniProt P00520)
Sequence of Tyrosine-protein kinase ABL1 (P00520 whole entry): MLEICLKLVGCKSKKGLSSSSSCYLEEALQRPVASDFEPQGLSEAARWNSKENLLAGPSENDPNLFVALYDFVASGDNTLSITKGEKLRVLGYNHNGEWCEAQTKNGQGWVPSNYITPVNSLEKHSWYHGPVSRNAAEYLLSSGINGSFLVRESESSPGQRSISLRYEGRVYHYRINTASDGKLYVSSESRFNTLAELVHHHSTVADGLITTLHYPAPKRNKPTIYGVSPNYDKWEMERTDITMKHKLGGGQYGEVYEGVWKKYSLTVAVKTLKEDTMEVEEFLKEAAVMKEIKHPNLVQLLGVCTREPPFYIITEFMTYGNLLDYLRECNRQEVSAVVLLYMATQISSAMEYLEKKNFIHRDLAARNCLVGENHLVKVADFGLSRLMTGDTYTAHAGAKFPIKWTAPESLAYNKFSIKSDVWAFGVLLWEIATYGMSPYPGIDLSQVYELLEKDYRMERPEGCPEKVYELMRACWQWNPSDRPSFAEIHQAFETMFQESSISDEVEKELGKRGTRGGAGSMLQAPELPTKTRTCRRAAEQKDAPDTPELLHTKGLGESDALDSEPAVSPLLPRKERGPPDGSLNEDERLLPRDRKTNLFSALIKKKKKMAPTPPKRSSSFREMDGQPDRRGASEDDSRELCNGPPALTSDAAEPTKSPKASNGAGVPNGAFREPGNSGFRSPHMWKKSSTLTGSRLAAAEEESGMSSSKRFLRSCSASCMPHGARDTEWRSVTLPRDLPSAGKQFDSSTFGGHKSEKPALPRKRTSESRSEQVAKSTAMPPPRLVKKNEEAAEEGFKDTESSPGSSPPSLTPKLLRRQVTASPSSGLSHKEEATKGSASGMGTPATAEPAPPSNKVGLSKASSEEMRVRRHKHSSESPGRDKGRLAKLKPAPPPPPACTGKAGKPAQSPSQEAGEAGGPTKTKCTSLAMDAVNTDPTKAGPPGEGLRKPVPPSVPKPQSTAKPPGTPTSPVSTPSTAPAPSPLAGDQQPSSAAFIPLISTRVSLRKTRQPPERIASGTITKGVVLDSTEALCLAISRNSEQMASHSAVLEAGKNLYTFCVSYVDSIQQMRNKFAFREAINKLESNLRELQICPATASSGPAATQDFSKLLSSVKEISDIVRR
Description: Inhibition of mouse recombinant N-terminal His6-tagged Abl by radiometric kinase assay

Sequence of Mitogen-activated protein kinase 14 (Q16539 whole entry): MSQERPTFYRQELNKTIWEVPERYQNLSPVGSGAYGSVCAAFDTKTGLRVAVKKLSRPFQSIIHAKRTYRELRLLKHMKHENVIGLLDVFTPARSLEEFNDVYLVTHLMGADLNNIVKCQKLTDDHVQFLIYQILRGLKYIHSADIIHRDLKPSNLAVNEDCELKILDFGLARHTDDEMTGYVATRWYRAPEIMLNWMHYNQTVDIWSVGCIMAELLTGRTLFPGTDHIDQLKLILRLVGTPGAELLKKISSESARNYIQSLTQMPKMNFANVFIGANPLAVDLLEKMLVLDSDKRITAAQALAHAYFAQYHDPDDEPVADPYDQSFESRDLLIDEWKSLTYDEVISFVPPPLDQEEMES
Sequence of Serine/threonine-protein kinase B-raf (P15056 whole entry): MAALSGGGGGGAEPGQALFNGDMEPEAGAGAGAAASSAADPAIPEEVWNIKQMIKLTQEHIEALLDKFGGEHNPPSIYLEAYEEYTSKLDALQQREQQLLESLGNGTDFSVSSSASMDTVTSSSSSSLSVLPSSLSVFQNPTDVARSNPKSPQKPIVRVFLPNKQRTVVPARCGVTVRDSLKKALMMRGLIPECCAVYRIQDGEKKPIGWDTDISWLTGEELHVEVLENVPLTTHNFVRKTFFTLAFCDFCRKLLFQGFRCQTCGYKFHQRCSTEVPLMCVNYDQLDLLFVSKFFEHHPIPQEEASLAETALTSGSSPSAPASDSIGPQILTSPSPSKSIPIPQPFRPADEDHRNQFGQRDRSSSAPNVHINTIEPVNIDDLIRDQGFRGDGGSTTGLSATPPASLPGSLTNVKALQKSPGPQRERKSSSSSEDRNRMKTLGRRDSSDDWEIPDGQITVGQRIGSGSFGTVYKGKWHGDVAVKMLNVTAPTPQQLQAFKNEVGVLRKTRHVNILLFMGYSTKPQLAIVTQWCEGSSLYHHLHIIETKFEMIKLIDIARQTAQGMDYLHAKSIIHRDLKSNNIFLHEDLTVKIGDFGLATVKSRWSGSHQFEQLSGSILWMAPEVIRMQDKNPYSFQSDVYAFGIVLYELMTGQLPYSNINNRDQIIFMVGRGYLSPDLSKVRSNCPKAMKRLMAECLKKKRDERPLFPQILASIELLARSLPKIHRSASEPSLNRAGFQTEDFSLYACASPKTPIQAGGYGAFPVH

SMILES	IC50 [1] [nM]	IC50 [2] [nM]	IC50 [3] [nM]
CNC(=O)c1cc(Oc2ccc(NC(=O)c3ccc(CN4CCN(C)CC4)cc3)cc2)ccn1	> 100000	> 100000	> 30000
CNC(=O)c1cc(Oc2ccc(NC(=O)Nc3cc(C(C)(C)C)nn3-c3ccc(C)cc3)cc2)ccn1	237		62.6
O=C(Nc1ccc(OCCN2CCOCC2)cc1)Nc1ccc(Cl)c(C(F)(F)F)c1	92.3	105	244
CNC(=O)c1cc(Oc2ccc(NC(=O)Nc3ccc(CN4CCN(C)CC4)cc3)cc2)ccn1	> 100000	> 100000	572
Cc1ccc(NC(=O)Nc2ccc(Cl)c(C(F)(F)F)c2)cc1Nc1nccc(-c2cccnc2)n1	180	18.4	< 1
CN1CCN(Cc2ccc(C(=O)Nc3ccc(OCCN4CCOCC4)c4ccccc34)cc2)CC1	> 100000	> 100000	> 30000
O=C(Nc1ccc(Cl)c(C(F)(F)F)c1)Nc1ccc(OCCN2CCOCC2)c2ccccc12	< 1		12900
Cc1ccc(-n2nc(C(C)(C)C)cc2NC(=O)Nc2ccc(C)c(Nc3nccc(-c4cccnc4)n3)c2)cc1	414	189	8.6
